pIC50: −log10 of the molar value.
Experiments:
Acetylcholinesterase [1] = biological target: Acetylcholinesterase (Tetronarce californica, UniProt P04058); experiment: Enzyme Inhibition Assay; conditions: pH 8; 22 °C
Method: (§1) The cholinesterase assays were performed using colorimetric method reported by Ellman. […] Each inhibitor was evaluated at several concentrations in the range from 1 nM to 20 uM.

Acetylcholinesterase [2] = biological target: Acetylcholinesterase (Electrophorus electricus, UniProt O42275); experiment: Enzyme Inhibition Assay; conditions: pH 8; 22 °C
Method: as §1

Acetylcholinesterase (Electrophorus electricus, UniProt O42275), sequence (O42275 whole entry): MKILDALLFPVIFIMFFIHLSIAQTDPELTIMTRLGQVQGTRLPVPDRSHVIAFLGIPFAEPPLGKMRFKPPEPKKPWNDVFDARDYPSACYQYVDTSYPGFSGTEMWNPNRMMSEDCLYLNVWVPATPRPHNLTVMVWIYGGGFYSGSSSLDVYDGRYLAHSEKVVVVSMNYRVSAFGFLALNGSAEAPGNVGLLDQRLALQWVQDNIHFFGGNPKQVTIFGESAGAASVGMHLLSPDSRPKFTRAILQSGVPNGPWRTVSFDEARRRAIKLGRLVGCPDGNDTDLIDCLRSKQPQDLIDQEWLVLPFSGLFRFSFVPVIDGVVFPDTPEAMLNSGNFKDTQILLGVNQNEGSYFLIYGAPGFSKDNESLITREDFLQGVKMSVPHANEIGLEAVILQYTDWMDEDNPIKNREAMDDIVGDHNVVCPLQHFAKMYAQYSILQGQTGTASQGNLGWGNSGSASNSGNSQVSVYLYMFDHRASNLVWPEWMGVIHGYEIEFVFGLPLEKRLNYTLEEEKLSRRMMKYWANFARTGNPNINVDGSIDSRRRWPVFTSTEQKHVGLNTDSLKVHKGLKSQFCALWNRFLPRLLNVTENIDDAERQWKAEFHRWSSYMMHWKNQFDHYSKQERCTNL
Acetylcholinesterase (Tetronarce californica, UniProt P04058), sequence (P04058 whole entry): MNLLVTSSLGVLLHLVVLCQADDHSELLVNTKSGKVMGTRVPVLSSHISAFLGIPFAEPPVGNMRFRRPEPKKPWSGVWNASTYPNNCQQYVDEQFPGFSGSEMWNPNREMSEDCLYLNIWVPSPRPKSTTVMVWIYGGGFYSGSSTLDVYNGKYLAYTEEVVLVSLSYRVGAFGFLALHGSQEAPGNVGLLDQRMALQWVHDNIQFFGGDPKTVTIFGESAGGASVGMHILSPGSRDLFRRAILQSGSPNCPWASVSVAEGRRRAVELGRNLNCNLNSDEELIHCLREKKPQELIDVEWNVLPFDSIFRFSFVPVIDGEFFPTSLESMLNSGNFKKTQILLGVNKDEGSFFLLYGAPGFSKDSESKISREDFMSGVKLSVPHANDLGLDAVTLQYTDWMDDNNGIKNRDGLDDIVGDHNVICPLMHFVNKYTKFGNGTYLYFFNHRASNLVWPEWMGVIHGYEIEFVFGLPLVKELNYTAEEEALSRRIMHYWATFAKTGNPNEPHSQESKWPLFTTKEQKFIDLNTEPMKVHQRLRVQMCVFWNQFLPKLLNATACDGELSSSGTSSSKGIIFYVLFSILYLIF

| SMILES | pIC50 (Acetylcholinesterase [1]) | pIC50 (Acetylcholinesterase [2]) |
| --- | --- | --- |
| COc1ccc2c3c1O[C@H]1C[C@@H](O)C=C[C@@]31CC[N+](CCCCCCCCN1C(=O)c3ccccc3C1=O)=C2 [(1S,12S,14R)-4-[8-(1,3-dioxo-2,3-dihydro-1H-isoindol-2-yl)octyl]-14-hydroxy-9-methoxy-11-oxa-4-azatetracyclo[8.6.1.0^{1,12}.0^{6,17}]heptadeca-4,6,8,10(17),15-pentaen-4-ium] | 8.40 |  |
| C[N+]1=Cc2ccc(OCCCCCCCCN3C(=O)c4ccccc4C3=O)c3c2[C@@]2(C=C[C@H](O)C[C@@H]2O3)CC1 [(1S,12S,14R)-9-{[8-(1,3-dioxo-2,3-dihydro-1H-isoindol-2-yl)octyl]oxy}-14-hydroxy-4-methyl-11-oxa-4-azatetracyclo[8.6.1.0^{1,12}.0^{6,17}]heptadeca-4,6,8,10(17),15-pentaen-4-ium] | 6.30 | 6.69 |
| COc1ccc2c3c1O[C@H]1C[C@@H](O)C=C[C@@]31CCN(CCCCCCCCN1C(=O)c3ccccc3C1=O)C2 [galanthamine deriv. 3d] | 7.42 | 7.14 |
| COc1ccc2c3c1O[C@H]1C[C@@H](O)C=C[C@@]31CC[N+](C)=C2 [galanthamine deriv. 14] | 6.15 | 6.58 |

Source: BindingDB's records for doi:10.1021/ja0466154 (Weizmann Institute of Science, 2004)
